From patent publication US9040532B2, “Alpha adrenergic receptor modulators” (Allergan, Inc., priority 2009, dated 2015)
pEC50: −log10 of the molar value.

Legend:
Type in all cases: cell-based
[1] = target: T1, Alpha 2C (Homo sapiens, UniProt P18825); experiment: FLIPR assay, intracellular Ca2+ mobilization, alpha 2C; settings: for pEC50: agonist, read-out: Alpha 2C Potency (EC50); for Alpha 2C relative efficacy compared to a standard full agonist: value in parentheses
T1 sequence (P18825 1-462): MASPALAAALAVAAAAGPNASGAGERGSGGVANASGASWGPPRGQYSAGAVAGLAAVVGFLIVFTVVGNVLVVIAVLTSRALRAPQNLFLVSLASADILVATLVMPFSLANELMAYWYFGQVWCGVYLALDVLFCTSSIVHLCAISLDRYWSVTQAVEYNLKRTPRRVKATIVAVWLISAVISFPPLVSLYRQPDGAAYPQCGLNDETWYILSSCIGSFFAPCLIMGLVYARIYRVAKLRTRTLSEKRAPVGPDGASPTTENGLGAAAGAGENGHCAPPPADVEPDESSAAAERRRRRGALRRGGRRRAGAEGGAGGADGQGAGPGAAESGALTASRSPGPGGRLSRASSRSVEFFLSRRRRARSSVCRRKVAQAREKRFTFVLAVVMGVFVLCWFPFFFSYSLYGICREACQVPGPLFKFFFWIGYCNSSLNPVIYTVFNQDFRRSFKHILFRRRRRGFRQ
Experimental: (§1) Cells are loaded into a plate reader with a Ca^2+ dye indicator and incubated with various compounds. This assay is adequate for monitoring the intracellular Ca^2+ mobilization from fluorescent readings to evaluate receptor agonists.

[2] = target: T2, Alpha 2B (Homo sapiens, UniProt P18089); experiment: FLIPR assay, intracellular Ca2+ mobilization, alpha 2B; settings: FLIPR; for pEC50: agonist, read-out: Alpha 2B Potency (EC50); for Alpha 2B relative efficacy compared to a standard full agonist: value in parentheses
T2 sequence (P18089 1-450): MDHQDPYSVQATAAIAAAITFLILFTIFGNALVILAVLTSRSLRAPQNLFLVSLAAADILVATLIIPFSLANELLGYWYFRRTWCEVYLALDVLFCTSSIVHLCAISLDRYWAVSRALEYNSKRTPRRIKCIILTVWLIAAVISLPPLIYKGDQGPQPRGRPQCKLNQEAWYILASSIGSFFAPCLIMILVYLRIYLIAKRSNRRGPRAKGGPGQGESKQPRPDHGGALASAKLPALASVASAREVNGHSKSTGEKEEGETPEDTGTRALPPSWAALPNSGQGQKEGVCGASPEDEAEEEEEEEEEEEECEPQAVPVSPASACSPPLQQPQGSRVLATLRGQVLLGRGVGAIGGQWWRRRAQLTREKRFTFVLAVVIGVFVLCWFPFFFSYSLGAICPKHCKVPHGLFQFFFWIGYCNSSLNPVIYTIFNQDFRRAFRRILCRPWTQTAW
Experimental: as §1

[3] = target: T3, Alpha 2A (Homo sapiens, UniProt P08913); experiment: FLIPR assay, intracellular Ca2+ mobilization, alpha 2A; settings: for pEC50: agonist, read-out: Alpha 2A Potency (EC50); for Alpha 2A relative efficacy compared to a standard full agonist: value in parentheses
T3 sequence (P08913 1-465): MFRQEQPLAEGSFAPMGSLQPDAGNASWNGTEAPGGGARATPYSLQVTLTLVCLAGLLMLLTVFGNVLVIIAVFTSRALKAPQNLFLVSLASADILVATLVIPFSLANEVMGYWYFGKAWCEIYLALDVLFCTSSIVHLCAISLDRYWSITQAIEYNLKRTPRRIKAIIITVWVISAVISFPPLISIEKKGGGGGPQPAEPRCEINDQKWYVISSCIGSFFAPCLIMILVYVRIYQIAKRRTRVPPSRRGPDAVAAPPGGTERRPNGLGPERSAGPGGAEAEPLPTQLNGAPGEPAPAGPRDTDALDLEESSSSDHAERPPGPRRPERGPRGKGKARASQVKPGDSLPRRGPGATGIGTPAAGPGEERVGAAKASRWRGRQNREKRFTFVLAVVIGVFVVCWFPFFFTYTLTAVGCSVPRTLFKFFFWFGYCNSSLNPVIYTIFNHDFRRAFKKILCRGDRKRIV
Experimental: The compounds described herein were tested for alpha adrenergic activity using a Fluorometric Imaging plate Reader (FLIPR) assay (Princen et al., 2003, Cytometry Part A. 51, pp. 35-45). Cells are loaded into a plate reader with a Ca^2+ dye indicator and incubated with various compounds. This assay is adequate for monitoring the intracellular Ca^2+ mobilization from fluorescent readings to evaluate receptor agonists. […] The compounds described herein activate alpha adrenergic receptors.

| SMILES | pEC50 [1] | Alpha 2C relative efficacy compared to a standard full agonist [1] | pEC50 [2] | Alpha 2B relative efficacy compared to a standard full agonist [2] | pEC50 [3] | Alpha 2A relative efficacy compared to a standard full agonist [3] |
| --- | --- | --- | --- | --- | --- | --- |
| c1cnc2cc(NC3=NCCC3)ccc2c1 [Compound 28, N-(3,4-Dihydro-2H-pyrrol-5-yl)quinolin-7-amine] | 6.98 | (0.96) | – | – | – | – |
| c1ccc2c(NC3=NCCC3)cccc2c1 [Compound 1, N-1-Naphthyl-3,4-dihydro-2H-pyrrol-5-amine] | 8.30 | (0.88) | 7.52 | (0.16) | 7.21 | (0.81) |
| c1cc(NC2=NCCC2)c2cnccc2c1 [Compound 32, N-(3,4-Dihydro-2H-pyrrol-5-yl)isoquinolin-8-amine] | 6.19 | (0.95) | – | – | – | – |
| c1nc2cc(NC3=NCCC3)ccc2[nH]1 [Compound 4, N-(3,4-Dihydro-2H-pyrrol-5-yl)-1H-benzimidazol-5-amine] | 6.85 | (1.06) | 6.15 | (0.19) | – | – |
| Clc1ccc(NC2=NCCC2)c2ccccc12 [Compound 7, N-(4-Chloro-1-naphthyl)-3,4-dihydro-2H-pyrrol-5-amine] | 6.17 | (0.84) | 5.97 | (0.33) | – | – |
| c1cnc2c(NC3=NCCC3)cccc2c1 [Compound 30, N-(3,4-dihydro-2H-pyrrol-5-yl)quinolin-8-amine] | 5.53 | (0.71) | – | – | – | – |
| Brc1c(NC2=NCCC2)ccc2nccnc12 [Compound 8, 5-Bromo-N-(3,4-dihydro-2H-pyrrol-5-yl)quinoxalin-6-amine] | 5.98 | (0.82) | 5.66 | (0.21) | 5.97 | (0.81) |
| c1ccc2c(c1)CC[C@@H]2NC1=NCCC1 [Compound 33, N-[(1S)-2,3-Dihydro-1H-inden-1-yl]-3,4-dihydro-2H-pyrrol-5-amine] | 6.55 | (0.68) | – | – | – | – |
| c1cc2cc(NC3=NCCC3)ccc2[nH]1 [Compound 17, N-(3,4-Dihydro-2H-pyrrol-5-yl)-1H-indol-5-amine] | 8.05 | (0.9) | 8.00 | (0.15) | – | – |
| c1cc(NC2=NCCC2)c2[nH]ccc2c1 [Compound 22, N-(3,4-Dihydro-2H-pyrrol-5-yl)-1H-indol-7-amine] | 5.67 | (0.61) | – | – | – | – |
| Cc1c(/N=C2\CCCN2)cnc2[nH]ccc12 [Compound 38, 4-Methyl-N-[(2E)-pyrrolidin-2-ylidene]-1H-pyrrolo[2,3-b]pyridin-5-amine] | 7.66 | (0.9) | – | – | 6.26 | (0.79) |
| c1cc(NC2=NCCC2)c2cc[nH]c2c1 [Compound 25, N-(3,4-Dihydro-2H-pyrrol-5-yl)-1H-indol-4-amine] | > 8.00 | (0.99) | 6.82 | (0.42) | 6.94 | (0.7) |
| Fc1cccc2c1C(NC1=NCCC1)CC2 (centres unmarked) [Compound 35, N-(7-Fluoro-2,3-dihydro-1H-inden-1-yl)-3,4-dihydro-2H-pyrrol-5-amine] | 6.25 | (0.87) | 6.21 | (0.44) | – | – |
| c1cc2c(c(NC3=NCCC3)c1)CCC2 [Compound 16, N-(2,3-Dihydro-1H-inden-4-yl)-3,4-dihydro-2H-pyrrol-5-amine] | 6.91 | (0.85) | – | – | – | – |
| c1cnc2cc(NC3=NCCC3)ccc2n1 [Compound 14, N-(3,4-Dihydro-2H-pyrrol-5-yl)quinoxalin-6-amine] | 5.56 | (0.66) | – | – | – | – |
| c1cc2ccc(NC3=NCCC3)cc2[nH]1 [Compound 21, N-(3,4-Dihydro-2H-pyrrol-5-yl)-1H-indol-6-amine] | 6.55 | (0.75) | – | – | – | – |
| Cc1cc(NC2=NCCC2)cc2cc[nH]c12 [Compound 19, N-(3,4-Dihydro-2H-pyrrol-5-yl)-7-methyl-1H-indol-5-amine] | 7.92 | (0.85) | 6.85 | (0.29) | – | – |
| Clc1cc(NC2=NCCC2)cc2nc[nH]c12 [Compound 13, 7-Chloro-N-(3,4-dihydro-2H-pyrrol-5-yl)-1H-benzimidazol-5-amine] | 6.36 | (0.98) | 5.74 | (0.35) | – | – |
| c1cc2cc(NC3=NCCC3)ccc2o1 [Compound 24, N-1-Benzofuran-5-yl-3,4-dihydro-2H-pyrrol-5-amine] | 6.20 | (0.51) | – | – | – | – |
| c1nc2c(cc1NC1=NCCC1)CCC2 [Compound 5, N-(3,4-Dihydro-2H-pyrrol-5-yl)-6,7-dihydro-5H-cyclopenta[b]pyridin-3-amine] | 5.89 | (0.86) | – | – | – | – |
| Clc1c(/N=C2\CCCN2)cnc2cccnc12 [Compound 6, 4-Chloro-N-[(2E)-pyrrolidin-2-ylidene]-1,5-naphthyridin-3-amine] | 5.59 | (0.59) | – | – | – | – |
| Cc1c(NC2=NCCC2)ccc2[nH]ccc12 [Compound 18, N-(3,4-Dihydro-2H-pyrrol-5-yl)-4-methyl-1H-indol-5-amine] | 7.16 | (0.9) | 7.41 | (0.18) | – | – |
| c1cc2cc(NC3=NCCC3)ccc2s1 [Compound 23, N-1-Benzothien-5-yl-3,4-dihydro-2H-pyrrol-5-amine] | 7.05 | (0.66) | – | – | – | – |
| Brc1cc(NC2=NCCC2)cc2cc[nH]c12 [Compound 20, 7-Bromo-N-(3,4-dihydro-2H-pyrrol-5-yl)-1H-indol-5-amine] | 7.92 | (0.95) | 7.10 | (0.61) | – | – |
| c1ccc2c(c1)CCC[C@@H]2NC1=NCCC1 [Compound 34, N-[(1S)-1,2,3,4-Tetrahydronaphthalen-1-yl]-3,4-dihydro-2H-pyrrol-5-amine] | 6.66 | (0.8) | 6.79 | (0.43) | – | – |
| Brc1ccc(NC2=NCCC2)c2ccccc12 [Compound 3, N-(4-Bromo-1-naphthyl)-3,4-dihydro-2H-pyrrol-5-amine] | 6.08 | (0.85) | 6.15 | (0.15) | – | – |
